# Data taken from US6605630B1, “Antibiotic oxazolidinone derivatives” (Syngenta Limited, priority 1997, dated 2003).
# Experiments:
# [1] = test system: Staphylococcus aureus MRQR
# Method: (§1) The activity is described in terms of the minimum inhibitory concentration (MIC) determined by the agar-dilution technique with an inoculum size of 10^4 CFU/spot.
# (§2) Staphylococci were tested on agar, using an inoculum of 10^4 CFU/spot and an incubation temperature of 37° C. for 24 hours-standard test conditions for the expression of methicillin resistance.
# [2] = test system: Staphylococcus aureus Oxford
# Method: as §1, §2
# [3] = test system: Coagulase Negative Staphylococci MS
# Method: as §1, §2
# [4] = test system: Staphylococcus aureus Novb. Res.
# Method: as §1, §2
# [5] = test system: Coagulase Negative Staphylococci MR
# Method: as §1, §2
# [6] = test system: Enterococcus faecalis; conditions: agar with 5% defibrinated horse blood, 10^4 CFU/spot, 37° C., 5% carbon dioxide, 48 hours
# Method: as §1
# (§3) Streptococci and enterococci were tested on agar supplemented with 5% defibrinated horse blood, an inoculum of 10^4 CFU/spot and an incubation temperature of 37° C. in an atmosphere of 5% carbon dioxide for 48 hours-blood is required for the growth of some of the test organisms.
# [7] = test system: Streptococcus pyogenes C203; conditions: agar with 5% defibrinated horse blood, 10^4 CFU/spot, 37° C., 5% carbon dioxide, 48 hours
# Method: as §1, §3
# [8] = test system: Bacillus subtilis
# From the text: as §1
substance,measurement,setting,value
"N-((5S)-3-(4-((7aS)[3H,5H]-3-oxo-1,7a-Dihydropyrrolol[1,2c]oxazol-6-yl)phenyl)-2-oxooxazolidin-5-ylmethyl)acetamide [Example 44]",MIC,[1],2.00 µg/mL
same,MIC,[2],0.25 µg/mL
same,MIC,[3],0.13 µg/mL
same,MIC,[4],0.50 µg/mL
same,MIC,[5],0.50 µg/mL
same,MIC,[6],0.50 µg/mL
same,MIC,[7],0.13 µg/mL
same,MIC,[8],0.50 µg/mL
